In patent publication US20220031700A1, “Treatment of Acute Respiratory Distress Syndrome (ARDS)” (priority 2020, published 2022):
Entries after “also recorded” stand apart in the source; their conditions may differ.

Experiments:
total IgM = experiment: Serum total IgM by ELISA in experimental influenza model; conditions: influenza 6.5 Lg EID50 IN; 100 mg/kg IP QD 12 days; Day 12; compared to influenza-infected/vehicle treated controls
in vivo = conditions: mouse
[1] = test system: mouse model of cytokine storm; experiment: Lung Wet/Dry ratio assay after intranasal LPS challenge; assay type: in vivo; conditions: LPS 50 μg IN, compared to LPS/Vehicle group
Procedure: Intranasal administration of LPS: The LPS challenge was carried out according to Ma et al., Inflammation, 2019, 42, 1901-1912.
Compound dosing: Animals in groups 2-5 were dosed according to the Table 1 for 6 days. On day 7, 1 hour after the last dose, animals were intranasally treated with LPS. Dexamethasone (20 mg/kg PO) was administered 1 hour prior to LPS treatment. Six hours after the instillation of LPS, animals received an IV dose of EBD. Thirty minutes later, animals were sacrificed, and the lungs were collected as previously described.
(§1) Intranasal administration of LPS: The LPS challenge was carried out according to Ma et al. (2019).
(§2) Compound dosing: Animals in groups 2-5 were dosed according to the Table 2 for 6 days. Group 3 animals received 6 doses of MLR-1023 QD and a 7th dose 1 hour prior to LPS. Group 4 animals received 6 doses of MLR-1023 QD and Vehicle 1 hour prior to LPS. Group 5 animals received 6 Vehicle doses QD and 1 dose of MLR-1023 1 hour prior to LPS. On day 7, 1 hour after the last dose, animals were intranasally treated with LPS. Six hours after the instillation of LPS, animals received an IV dose of EBD. Thirty minutes later, animals were sacrificed, and the lungs were collected as previously described.

[2] = test system: Influenza-specific antibody; experiment: Serum influenza-specific antibody by ELISA in experimental influenza model; conditions: influenza 6.5 Lg EID50 IN; 100 mg/kg IP QD 12 days; Day 12; compared to influenza-infected/vehicle treated controls
TNF-alpha = experiment: Plasma TNF-alpha level by ELISA after intranasal LPS challenge; assay type: in vivo, mouse; conditions: Example 2; 100 mg/kg IP, all dosing paradigms; comparison to LPS/vehicle group
Procedure: as §1, §2

total IgG = experiment: Serum total IgG by ELISA in experimental influenza model; conditions: influenza 6.5 Lg EID50 IN; 100 mg/kg IP QD 12 days; Day 12; compared to influenza-infected/vehicle treated controls
IL-6 = experiment: Plasma IL-6 level by ELISA after intranasal LPS challenge; assay type: in vivo, mouse; conditions: Example 2; 100 mg/kg IP, all dosing paradigms; comparison to LPS/vehicle group
Procedure: as §1, §2

[3] = test system: mouse model of cytokine storm; experiment: Evans Blue dye (EBD) assay of lung after intranasal LPS challenge; assay type: in vivo

## Cc1cccc(Oc2cnc(=O)[nH]c2)c1 [MLR-1023, tolimidone]
Total IgM
  serum total IgM level: did not alter
In vivo
  half-life: ~1.5 h
[1]; Example 1, C57Bl/6J male mice, MLR-1023 30 and 100 mg/kg IP QD 7 days, last dose 1 hr prior to LPS, dexamethasone 20 mg/kg PO 1 hr prior to LPS
  wet/dry ratio of the lung: significant dose dependent decrease
[1]; Example 2, 100 mg/kg IP, all dosing paradigms (7×, 6×, 1×)
  wet/dry ratio of the lung: significant decrease
[2]
  serum influenza-specific antibody level: did not alter
TNF-alpha
  plasma TNF-α concentration: did not produce significant effects
Total IgG
  serum total IgG level: did not alter
IL-6
  plasma IL-6 concentration: did not produce significant effects
[3]; Example 1, C57Bl/6J male mice, LPS 50 μg IN, MLR-1023 30 and 100 mg/kg IP QD 7 days, last dose 1 hr prior to LPS, dexamethasone 20 mg/kg PO 1 hr prior to LPS, compared to LPS/Vehicle group
  Evans Blue content in the lung: greater than that of dexamethasone and comparable to that of animals that received no LPS; also recorded: significant dose dependent decrease
[3]; Example 2, 100 mg/kg IP QD, 6 doses plus acute dose 1 hour before LPS challenge (7×), relative to the 6-dose paradigm
  Evans Blue dye content in the lungs (plasma extravasation): comparable level of reduced plasma extravasation
[3]; Example 2, 100 mg/kg IP QD, 6 doses, vehicle 1 hr prior to LPS (6×), compared to LPS/Vehicle group
  Evans Blue dye content in the lungs: significant decrease
[3]; Example 2, 100 mg/kg IP, single dose 1 hr prior to LPS challenge (1×)
  Evans Blue dye content in the lungs (plasma extravasation): did not yield reduction
